{"source": "patent US7589065B2", "about": "“Catalysis of the cis/trans-isomerisation of secondary amide peptide compounds” (Max-Planck Gesellschaft zur Forderung der Wissenschaften, …, priority 2001, dated 2009)", "key": {"DnaK": {"biological_target": "DnaK (Escherichia coli, UniProt P0A6Y8)", "sequence (P0A6Y8 whole entry)": "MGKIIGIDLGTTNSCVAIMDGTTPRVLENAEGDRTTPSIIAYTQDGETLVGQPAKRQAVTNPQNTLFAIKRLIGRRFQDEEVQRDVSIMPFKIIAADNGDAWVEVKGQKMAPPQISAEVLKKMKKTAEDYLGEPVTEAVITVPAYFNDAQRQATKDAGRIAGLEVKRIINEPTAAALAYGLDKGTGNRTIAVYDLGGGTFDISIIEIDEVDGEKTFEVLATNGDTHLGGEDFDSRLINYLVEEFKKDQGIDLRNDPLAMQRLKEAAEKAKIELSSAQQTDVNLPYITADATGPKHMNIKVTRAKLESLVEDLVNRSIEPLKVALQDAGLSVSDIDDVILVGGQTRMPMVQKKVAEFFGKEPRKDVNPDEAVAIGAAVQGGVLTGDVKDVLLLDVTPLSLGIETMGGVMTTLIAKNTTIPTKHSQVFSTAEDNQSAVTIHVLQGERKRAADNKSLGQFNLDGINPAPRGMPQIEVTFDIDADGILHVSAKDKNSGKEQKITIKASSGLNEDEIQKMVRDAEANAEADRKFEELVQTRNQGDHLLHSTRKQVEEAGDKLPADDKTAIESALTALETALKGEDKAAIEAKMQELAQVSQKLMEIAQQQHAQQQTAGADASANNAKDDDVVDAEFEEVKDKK", "assay": "biochemical", "experimental": "(§1) RNAse T1 contains a Ser-Pro sequence with a cis conformation at the sequence site 38/39. […] In detail, the protein is unfolded by suitable additives and the renaturation rate is measured and registered after removal of the additives, e.g. by rapid dilution. As is shown (Scholz et al., Biol. chem. 1998, March; 379(3): 361-5), the exchange of the prolin 39 with an alanine (P39A) leads to a protein mutant whose foldback rate is […] influenced by this peptide bond. Added APIase, dependent on concentration, catalyses the isomerisation of this non-prolyl peptide bond and, thus, the foldback of the P39A mutant.\n(§2) […] RNAse T1 P39A was incubated with 5 M guanidinium-Cl and 0.1 M Tris-HCl at pH 8 at 15° C. for 60 min. The foldback at 15° C. was started by a 40-fold dilution of the unfolded protein in foldback buffer (0.1 Tris-HCl, 50 mM KCl, 11 mM MgCl2) at pH 8. The foldback was determined as increase of the protein fluorescence at 320 nm (10 nm width of band) with excitation of 278 nm (1.5 nm width of band) with a Jobin-Yvon-Spex Fluoromax-2 fluorescence spectrometer."}, "APIase activity of DnaK": {"biological_target": "T1, APIase activity of DnaK (Escherichia coli, UniProt P0A6Y8)", "T1 construct": "purchased SIGMA-ALDRICH CHEMIE GmbH, Germany", "assay": "Inhibition of the APIase activity of DnaK in the spectrophotometric Ala-Leu activity test", "format": "biochemical", "experimental": "The peptide bond of the substrate Ala-Leu is to about 99% in the trans conformation at pH 7.4. An increase of the proton concentration of the aqueous Ala-Leu solution to about 100 mM results in a shift of the equilibrium of the conformations to a higher content of the peptide with the cis conformation. […] The isomerisation rate can be measured when the substrate is subjected to a pH modification that has an influence on the cis/trans equilibrium of the substrate and when the rate of the pH modification is higher than the isomerisation rate of the substrate. In this context, the isomerisation rate corresponds to the sum of the individual rates cis to trans and trans to cis of the two conformation isomers of the substrate. In the present example, a so-called Stopped-Flow device from the company Applied Photophysics Ltd. (England) is used. This spectroscopic device makes a rapid mixture of two components and, subsequently, a collection of spectroscopic data, which is rapid and […], possible. Moreover, an accompanying software makes it possible for the rate constants (kobs) to be calculated while assuming a concentration/time law that corresponds to a so-called “first-order time law”. […]"}, "[1]": {"assay": "Stopped-flow spectroscopic test of catalysis of the cis/trans isomerisation of Ala-Leu (APIase activity)", "format": "biochemical", "description": "The peptide bond of the substrate Ala-Leu is to about 99% in the trans conformation at pH 7.4. […] The isomerisation rate can be measured when the substrate is subjected to a pH modification that has an influence on the cis/trans equilibrium of the substrate and when the rate of the pH modification is higher than the isomerisation rate of the substrate. In this context, the isomerisation rate corresponds to the sum of the individual rates cis to trans and trans to cis of the two conformation isomers of the substrate. In the present example, a so-called Stopped-Flow device from the company Applied Photophysics Ltd. (England) is used. This spectroscopic device makes a rapid mixture of two components and, subsequently, a collection of spectroscopic data, which is rapid and time-independent, possible. Moreover, an accompanying software makes it possible for the rate constants (kobs) to be calculated while assuming a concentration/time law that corresponds to a so-called “first-order time law”. For the detection of the catalysis, the following assay was selected: • Stock solution Ala-Leu (Bachem, Switzerland) 10 mM dissolved in Aqua dest. with pH 2.0, adjusted by means of HCl • Buffer solution: 12.5 mM Tris, 50 mM KCl, 11 mM MgCl2 with HCl adjusted to pH 8.8 DnaK (SIGMA-ALDRICH CHEMIE GmbH, Germany), or produced in a molecular biological way\nAfter mixing the components in the Stopped-Flow device, the reaction solution had the following concentrations: 1.66 mM Ala-Leu, 10.4 mM Tris, 41.6 mM KCl, 9.2 mM MgCl2. The pH was 7.6. All the solutions were kept constant at a temperature of 25° C.\nThe thickness of the coating of the silica cuvets was 2 mm, the measuring wave length was 220 nm.\nThe following solutions were used: • Buffer solution: 12.5 mM Tris, 50 mM KCl, 11 mM MgCl2. • Substrate solution: 20 mM Ala-Leu, dissolved in Aqua dest. at pH 2.0. • DnaK stock solution: 20 μM in buffer solution a\nThe pH of the solution in the cuvet was 7.3 each. The error lines indicated result from three independent measurements for the determination of the rate constant kobs with a DnaK concentration.\nIn order to establish whether Cyp18 catalyses the cis/trans isomerisation of the dipeptide Ala-Leu, the isomerisation rate was analysed in the presence of up to 8.4 μM Cyp18: • Human Cyp18 was either bought (SIGMA-ALDRICH CHEMIE GmbH, Germany) or produced as recombinant enzyme (E. coli cultures). The cyclophilin concentration of the cyclophilin stock solution of 1.14 mM was determined by means of titration against the cyclophilin inhibitor cyclosporin A (SIGMA-ALDRICH CHEMIE GmbH, Germany). The substrate Ala-Leu (BACHEM, Switzerland) used was produced as 10 mM stock solution in water with a pH of 2.0. The buffer solution used contained a mixture of the following chemicals: 12 mM Tris, 50 mM KCl, 11 mM MgCI2 and was adjusted with HCl to a pH of 8.8. The measurement of the isomerisation rate of the substrate took place with the Stopped-Flow-Photometer (Applied Photophysics Ltd., England) at 25°C. with 228 nm using 1 cm quartz cuvets. By adding the substrate to the mixture of buffer and Cyp18, solutions were produced in the cuvet with Cyp18 concentrations of 0, 208, 416, 625, 833 and 8,330 nM and 1.66 mM Ala-Leu each with a pH of 7.9."}, "[2]": {"assay": "2D 1H NMR exchange (NOESY) measurement of cis/trans isomerisation in the pentapeptide", "format": "biochemical", "details": "for relative intensity of the cross signal of the peptide bond Ala-Tyr / relative intensity of the cross signal of the peptide bond Tyr-Ala: 25 mM pentapeptide, pH 7.1, 278° K; for relative intensity of the cross signal of the peptide bond Ala-Tyr: no addition 3.50 ± 0.51; for relative intensity of the cross signal of the peptide bond Tyr-Ala: no addition 3.89 ± 0.32", "source_text": "A further possibility, only described in 1998, is the determination of the cis/trans isomerisation rate of secondary amide peptide bonds containing aromatic amino acids by means of 2D 1H NMR exchange experiments (Scherer G. et al., 1998, JACS 120:5568-5574). In Example 8, this NMR method is used to determine a catalytic acceleration of the cis/trans isomerisation of the peptide bonds Ala-Tyr and Tyr-Ala within the pentapeptide Ala-Ala-Tyr-Ala-Ala. The acceleration is accomplished by catalytic amounts of DnaK.\nNMR Device: Bruker DRX-500, Equipped with z-gradient\n• FIG. 8: The alanine methyl region from the two-dimensional exchange 1H-NMR spectrum of 25 mM Ala-Ala-Tyr-Ala-Ala in 25 mM Tris, 11 mM MgCl2, 50 mM KCl, 9:1H2O:D2O, pH 7.1 at 278° K. The mixing time of the phase-sensitive NOESY was 330 ms. Each FID had 184 scans. The amount of data from t1×t2=512×8192 points covered a spectral range of 5501 Hz×5482 Hz. The correction of the base line was carried out by adjustment with a polynom of fifth order in the F2 dimension. […] The experiment was carried out under identical conditions as described above. In addition, 20 μM DnaK was contained in the measuring solution.\nIn a further analysis of the method of the two-dimensional NOESY experiment illustrated in Example 8, the cross signals can be quantified by means of common mathematical techniques."}, "[3]": {"details": "DnaK 250 and 1,000 nM, 10° C., pH 7.8", "protocol": "The details of Example 5 are described as follows: • Measuring device: Spectrophotometer Diodenarray HP8452A (Hewlett Packard, USA) • Substrate: Suc-Ala-Phe-Pro-Phe-NHNp (SEQ ID NO:2) (BACHEM, Switzerland) • Protease: Chymotrypsin (Merck, Germany) • Measure temperature: 10° C. • Buffer: 35 mM Hepes, pH 7.8 • Protease solution for use: 5 mg protease per ml buffer • Substrate solution for use: 35 mg substrate dissolved in 1 ml DMSO • DnaK solution for use: 30 μM in buffer • Cuvet: 1 ml quartz cuvet, thickness of layer 1 cm • Measuring wave length: 390 nm\nProcess: After attemperating a mixture of substrate, DnaK and buffer, the reaction is started by rapid addition and homogenous distribution of the protease solution for use. In this way, a chymotrypsin concentration of 0.83 mg/ml is achieved in the cuvet. By means of the substrate amount contained in the cuvet, a final extinction of about 0.43 is accomplished after complete turnover of the substrate. The concentrations of DnaK contained in the cuvet were 0.250 and 1,000 nM."}, "RNAse T1 P39A": {"tested_on": "RNAse T1 P39A", "assay": "Foldback of RNAse T1 P39A catalysed by APIase", "format": "biochemical", "details": "1 μM DnaK, 15° C., pH 8; without APIase 6.67×10^−4", "experimental": "as §1, §2"}}, "data": [{"compound": "CCCCCCCCCCCC(=O)NC(CC(=O)O)C(=O)O", "note": "(stereo not shown) [28/B7]", "values": [{"measurement": "IC50", "setting": "DnaK", "value": 177, "unit": "µM"}]}, {"compound": "CCCCCCCCCCCC(=O)NC(Cc1c[nH]c2ccccc12)C(=O)O", "note": "(stereo not shown) [28/C8]", "values": [{"measurement": "IC50", "setting": "DnaK", "value": 55.3, "unit": "µM"}]}, {"compound": "CCCCCCCC/C=C\\CCCCCCCC(=O)NC(CC(C)C)C(=O)NCCc1ccccc1", "note": "(stereo not shown) [30/B4]", "values": [{"measurement": "IC50", "setting": "DnaK", "value": 7.5, "unit": "µM"}]}, {"compound": "CCCCCCCCCCCCCCCC(=O)NCc1ccc(C(=O)NCC2CCC(C(=O)O)CC2)cc1", "note": "(stereo not shown) [37/B11]", "values": [{"measurement": "IC50", "setting": "DnaK", "value": 5.9, "unit": "µM"}]}, {"compound": "CSCC[C@H](NC(=O)[C@H](CC(C)C)NC(=O)CNC(=O)[C@H](Cc1ccccc1)NC(=O)[C@H](Cc1ccccc1)NC(=O)[C@H](CCC(N)=O)NC(=O)[C@H](CCC(N)=O)NC(=O)[C@@H]1CCCN1C(=O)[C@H](CCCCN)NC(=O)[C@@H]1CCCN1C(=O)[C@@H](N)CCCN=C(N)N)C(N)=O", "note": "[substance P]", "values": [{"measurement": "IC50", "setting": "APIase activity of DnaK", "value": "76 ± 16", "unit": "µM"}]}, {"compound": "Cyp18: human peptidyl-prolyl cis/trans isomerase of the cyclophilin family, EC 5.2.1.8, P05092", "values": [{"measurement": "rate constants kobs of the isomerisation of Ala-Leu", "setting": "[1]; Cyp18 0 to 8,330 nM, independent of concentration, 1.66 mM Ala-Leu, pH 7.9, 25° C., 228 nm", "value": "about 0.43±0.03 s^−1"}, {"measurement": "acceleration of the cis to trans reaction of Ala-Leu (in words)", "setting": "[1]; up to 8.4 μM Cyp18, observation period 20 seconds", "value": "no acceleration of the cis to trans reaction could be observed"}]}, {"compound": "DnaK: protein with APIase activity, bought from SIGMA-ALDRICH or produced in a molecular biological way", "values": [{"measurement": "change of the relative intensity of the Ala-Tyr cross signal (in words)", "setting": "[2]; 20 μM DnaK", "value": "nearly doubles"}, {"measurement": "influence on the cis/trans isomerisation rate of the Tyr-Ala peptide bond (in words)", "setting": "[2]; 20 μM DnaK", "value": "no influence"}, {"measurement": "relative intensity of the cross signal of the peptide bond Ala-Tyr", "setting": "[2]; 20 μM addition", "value": "6.37 ± 0.57"}, {"measurement": "relative intensity of the cross signal of the peptide bond Tyr-Ala", "setting": "[2]; 20 μM addition", "value": "3.39 ± 0.45"}, {"measurement": "influence on the peptidyl-prolyl cis/trans isomerisation rate of the substrate (in words)", "setting": "[3]", "value": "did not show a visible influence on the cis/trans isomerisation rate of the substrate"}, {"measurement": "rate constant of the foldback of RNAse T1 P39A", "setting": "RNAse T1 P39A", "value": "9.77×10^−4 -s"}, {"measurement": "rate constant (kobs) of the cis/trans isomerisation of Ala-Leu", "setting": "[1]; 624 nM DnaK, 1.66 mM Ala-Leu, pH 7.6, 25° C., non-catalysed reaction 0.36 s^−1", "value": 0.55, "unit": "s⁻¹"}, {"measurement": "time until the conformation equilibrium occurs", "setting": "[1]; 624 nM DnaK, without DnaK about 20 seconds", "value": "less than 10 seconds"}]}, {"compound": "FKBP12: peptidyl-prolyl cis/trans isomerase from SIGMA-ALDRICH", "values": [{"measurement": "catalysis of the cis/trans isomerisation of the Ala-Tyr and Tyr-Ala peptide bonds (in words)", "setting": "[2]; 20 μM addition", "value": "neither catalyse"}, {"measurement": "relative intensity of the cross signal of the peptide bond Ala-Tyr", "setting": "[2]; 20 μM addition", "value": "3.94 ± 0.87"}, {"measurement": "relative intensity of the cross signal of the peptide bond Tyr-Ala", "setting": "[2]; 20 μM addition", "value": "2.68 ± 0.75"}]}, {"compound": "bovine serum albumin: purified reference protein (SIGMA-ALDRICH)", "values": [{"measurement": "catalysis of the cis/trans isomerisation of the dipeptide Ala-Leu (in words)", "setting": "[1]; 1 μM purified protein instead of Cyp18", "value": "not able to catalyse the cis/trans isomerisation of the dipeptide"}]}]}
